These results are taken from patent US6222035A, “[1,2,4] triazolo [1,5-C] pyrimidine derivatives” (Kyowa Hakko Kogyo Co., Ltd., priority 1997, dated 2001).

SMILES strings stand for the structures. Structures can show the parent of a compound that is named as a salt.

In one assay the target is T1, adenosine A2A receptor (Rattus norvegicus, UniProt P30543).
T1 construct: from tissue; host or cells: rat corpus striatum, washed membrane suspension
The assay can be described thus: Adenosine receptor binding activity (adenosine A2A receptor binding test), 3H-CGS 21680 binding. The note with it: 2 h, read-out: A2A receptor inhibition ratio (%); for inhibition at 0.1 µM: 10^-7 M. As to the method:
Adenosine receptor binding activity (adenosine A2A receptor binding test) This test was carried out by slightly modifying the method of Bruns et al. [Molecular Pharmacology, 29: 331 (1986)].
Corpus striatum of a rat was suspended in an ice-cooled 50 mM tris(hydroxymethyl)aminomethane hydrochloride (hereinafter referred to as "Tris-HCl") buffer (pH 7.7) using Polytron Homogenizer (manufactured by Kinematica Co.). The suspension was centrifuged (50,000×g, 10 minutes), and the obtained precipitate was re-suspended in the same amount of 50 mM Tris-HCl buffer. The suspension was centrifuged under the same conditions, and the final precipitate was suspended in 50 mM Tris-HCl [containing 10 mM magnesium chloride and 0.02 unit/mg tissue of adenosine deaminase (manufactured by Sigma Co.)] to give a tissue concentration of 5 mg (wet weight)/ml.
To 1 ml of the tissue suspension thus prepared were added 50 μl of tritium-labeled CGS 21680 {^3 H-2-[p-(2-carboxyethyl)phenethylamino]-5'-N-ethylcarboxamido)adenosine: 40 Ci/mmol; manufactured by New England Nuclear Co.[The Journal of Pharmacology and Experimental Therapeutics, 251: 888 (1989)]} (final concentration:4.0 nM) and 50 μl of a test compound. The resulting mixture was allowed to stand for 120 minutes at 25° C., and then rapidly filtered by suction through a glass fiber filter (GF/C, manufactured by Whatman Co.) The filter was immediately washed three times with […] of an ice-cooled 50 mM Tris-HCl buffer, and transferred to a vial, a scintillator (EX-H , manufactured by Wako Pure Chemical Industries, Ltd.) was added thereto, and the radioactivity on the filter was determined with a liquid scintillation counter (manufactured by Packard Instrument Co.) […]
The inhibition ratio of the test compound against the A2A receptor binding (^3 H-CGS 21680 binding) was calculated by the following equation:
Inhibition ratio (%)={1-(Amount of the binding in the presence of the test compound-Amount of the nonspecific binding)/(Amount of the total binding-Amount of the nonspecific binding)}×100
(Note) Amount of the total binding means the amount of radioactivity of ^3 H-CGS 21680 bound in the absence of the test compound. Amount of the nonspecific binding means the amount of radioactivity of ^3 H-CGS 21680 bound in the presence of 100 μM cyclopentyladenosine (CPA, manufactured by Sigma Co.) Amount of the binding in the presence of the test compound means the amount of radioactivity of ^3 H-CGS 21680 bound in the presence of the test compound at various levels of concentrations.

Assay [1] deals with CGS 21680-induced catalepsy in mice. Nature of the assay: Activity on CGS 21680-induced Catalepsy. The assay is classed as in vivo, mouse (male ddY). The settings on record: 10 mg/kg oral; for Total score (catalepsy): 10 animals, maximum 50 points, control 48; for Number of Animals showing remission: catalepsy score 4 points or less in 10 cases; for inhibition in vivo at 10 mg/kg: Mus musculus, CGS 21680-induced catalepsy, read-out: Remission ratio (%). As to the method:
Activity on CGS 21680-induced Catalepsy
Parkinson's disease is motor deficit based on the degeneration and cell death of the nigrostriatal dopaminergic neuron. […] [Journal of Neuroscience, 16: 605 (1996)]. Accordingly, it is considered that adenosine A2A receptor agonists positively regulate the output of the striopallidal GABAergic neurons and, as a result, catalepsy is induced by the administration of CGS 21680.
This test was carried out using 10 animals per group of male ddY mice of 5 week age (22 to 25 g in body weight, Japan SLC). CGS 21680 (manufactured by RBI) was dissolved in a physiological saline (manufactured by Otsuka Pharmaceutical), and 10 μg/20 μl of the solution was injected into mouse intracerebro-ventricle. Test compounds were used by suspending them in distilled water containing 0.3% of polyoxyethylene(20)sorbitan monooleate (hereinafter referred to as "Tween 80") (manufactured by Otsuka Pharmaceutical). […] One hour after the administration of the test compound, only forelimbs or only hindlimbs of each animal were laid on a vertically arranged stand made of acryl, having a size of 4.5 cm in height and 1.0 cm in width, to measure catalepsy symptoms. All of the compounds were administered orally in a dose of 10 mg/kg.
The effect was judged by total catalepsy scores of 10 animals in one group (the maximum is 50 points). When the total score was 40 points or less, the activity of drugs was judged positive. The number of animals showing remission of catalepsy was expressed by the number of cases in which the catalepsy score was 4 points or less in 10 cases. The catalepsy remission ratio was expressed as the percentage of the total score in the test compound-administered group to the total score in the control group.

T1 sequence (P30543 whole entry): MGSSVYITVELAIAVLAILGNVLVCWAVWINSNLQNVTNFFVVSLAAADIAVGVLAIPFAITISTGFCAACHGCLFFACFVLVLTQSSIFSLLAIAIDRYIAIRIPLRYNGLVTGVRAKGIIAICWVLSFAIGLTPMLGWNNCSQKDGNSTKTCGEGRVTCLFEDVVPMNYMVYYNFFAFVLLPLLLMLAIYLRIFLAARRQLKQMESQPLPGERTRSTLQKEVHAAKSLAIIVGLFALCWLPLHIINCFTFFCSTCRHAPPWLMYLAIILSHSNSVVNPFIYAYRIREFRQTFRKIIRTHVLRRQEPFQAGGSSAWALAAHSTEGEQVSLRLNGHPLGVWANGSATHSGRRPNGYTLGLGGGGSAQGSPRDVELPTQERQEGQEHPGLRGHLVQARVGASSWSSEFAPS

On to `Nc1nc(N2CCN(CCF)CC2)cc2nc(-c3ccco3)nn12` [Compound 126, 5-Amino-7-(4-(2-fluoroethyl)piperazinyl)-2-(2-furyl)[1,2,4]triazolo[1,5-c]pyrimidine], for which the inhibition at 0.1 µM on adenosine A2A receptor was 60%. For the same molecule, in assay [1], the “Total score (catalepsy)” value is recorded as 2, the “Number of Animals showing remission” value is reported as 9 and the inhibition in vivo at 10 mg/kg came out at 96%.
Consider `COc1ccc(OC)c(CN2CCN(c3cc4nc(-c5ccco5)nn4c(N)n3)CC2)c1` [Compound 75, 5-Amino-7-((2,5-dimethoxybenzyl)piperazinyl)-2-(2-furyl)[1,2,4]triazolo[1,5-c]pyrimidine], for which the inhibition at 0.1 µM at adenosine A2A receptor amounted to 84%. In addition, in assay [1], the “Total score (catalepsy)” value is listed as 10, the “Number of Animals showing remission” value worked out at 9 and the inhibition in vivo at 10 mg/kg is 76%.
For `COCCCN1CCN(c2cc3nc(-c4ccco4)nn3c(N)n2)CC1` [Compound 99, 5-Amino-2(2-furyl)-7-(4-(3-methoxypropyl)piperazinyl)[1,2,4]triazolo[1,5-c]pyrimidine], on adenosine A2A receptor, the inhibition at 0.1 µM was 59%. Further, in assay [1], the “Total score (catalepsy)” value is reported as 5, the “Number of Animals showing remission” value came out at 10 and the inhibition in vivo at 10 mg/kg is 90%.
The corresponding values for `CCOCCCN1CCN(c2cc3nc(-c4ccco4)nn3c(N)n2)CC1` [Compound 100, 5-Amino-7-(4-(3-ethoxypropyl)piperazinyl)-2-(2-furyl)[1,2,4]triazolo[1,5-c]pyrimidine] are 54%, 4, 10 and 90%.
As to `C[C@@H]1CN(c2cc3nc(-c4ccco4)nn3c(N)n2)C[C@H](C)N1C` [Compound 115, 5-Amino-7-(cis-3,5-dimethyl-4-methylpiperazinyl)-2-(2-furyl)[1,2,4]triazolo[1,5-c]pyrimidine hydrochloride], at adenosine A2A receptor, the inhibition at 0.1 µM is 22%. Moreover, in assay [1], the “Total score (catalepsy)” value was 5, the “Number of Animals showing remission” value was found to be 10 and the inhibition in vivo at 10 mg/kg came out at 88%.
As for `Nc1nc(N2CCN(CCOc3ccccc3)CC2)cc2nc(-c3ccco3)nn12` [Compound 90, 5-Amino-2-(2-furyl)-7-(4-(2-phenoxyethyl)piperazinyl)[1,2,4]triazolo[1,5-c]pyrimidine hydrochloride], the inhibition at 0.1 µM at adenosine A2A receptor was found to be 82%. Also, in assay [1], the “Total score (catalepsy)” value worked out at 12, the “Number of Animals showing remission” value was determined as 9 and the inhibition in vivo at 10 mg/kg was 80%.
For the molecule `CCNC(=O)c1cnc(N)n2nc(-c3ccco3)nc12` [Compound 169, 5-Amino-8-ethylcarbamoyl-2-(2-furyl)[1,2,4]triazolo[1,5-c]pyrimidine], at adenosine A2A receptor, the inhibition at 0.1 µM was found to be 96%. In assay [1], the “Total score (catalepsy)” value was determined as 9, the “Number of Animals showing remission” value is recorded as 10 and the inhibition in vivo at 10 mg/kg is 82%.
`Nc1nc(Oc2ccc(Cl)cc2)cc2nc(-c3ccco3)nn12` [Compound 35, 5-Amino-7-(4-chlorophenoxy)-2-(2-furyl)[1,2,4]triazolo[1,5-c]pyrimidine]: the inhibition at 0.1 µM at adenosine A2A receptor stood at 82%. Moreover, the inhibition at 0.01 µM at adenosine A2A receptor (10^-8 M) is 43%. Further, in assay [1], the “Total score (catalepsy)” value is 15, the “Number of Animals showing remission” value is listed as 8 and the inhibition in vivo at 10 mg/kg worked out at 66%.
For the molecule `Nc1nc(N2CCN(Cc3cnns3)CC2)cc2nc(-c3ccco3)nn12` [Compound 144, 5-Amino-2-(2-furyl)-7-(4-(1,2,3-thiadiazol-5-ylmethyl)piperazinyl)[1,2,4]triazolo[1,5-c]pyrimidine], on adenosine A2A receptor, the inhibition at 0.1 µM was found to be 58%. In addition, in assay [1], the “Total score (catalepsy)” value is recorded as 9, the “Number of Animals showing remission” value was 9 and the inhibition in vivo at 10 mg/kg is 80%.
Consider `COc1cc(CN2CCN(c3cc4nc(-c5ccco5)nn4c(N)n3)CC2)cc(OC)c1` [Compound 76, 5-Amino-7-(4-(3,5-dimethoxybenzyl)piperazinyl)-2-(2-furyl)[1,2,4]triazolo[1,5-c]pyrimidine], for which the inhibition at 0.1 µM on adenosine A2A receptor came out at 73%. For the same molecule, in assay [1], the “Total score (catalepsy)” value was determined as 11, the “Number of Animals showing remission” value is reported as 10 and the inhibition in vivo at 10 mg/kg worked out at 76%.
Regarding `N#Cc1ccccc1CSc1cc2nc(-c3ccco3)nn2c(N)n1` [Compound 188, 5-Amino-7-(2-cyanobenzylthio)-2-(2-furyl)[1,2,4]triazolo[1,5-c]pyrimidine], the inhibition at 0.1 µM at adenosine A2A receptor worked out at 91%. In assay [1], the “Total score (catalepsy)” value is listed as 15, the “Number of Animals showing remission” value came to 2 and the inhibition in vivo at 10 mg/kg was 70%.
Take `Nc1nc(N2CCN(CCCc3cccnc3)CC2)cc2nc(-c3ccco3)nn12` [Compound 87, 5-Amino-2-(2-furyl)-7-(4-(3-(3-pyridyl)propyl)piperazinyl)[1,2,4]triazolo[1,5-c]pyrimidine hydrochloride]: on adenosine A2A receptor, the inhibition at 0.1 µM worked out at 77%. Moreover, in assay [1], the “Total score (catalepsy)” value is reported as 14, the “Number of Animals showing remission” value is given as 9 and the inhibition in vivo at 10 mg/kg amounted to 68%.
The corresponding values for `Nc1nc(N2CCN(CCCF)CC2)cc2nc(-c3ccco3)nn12` [Compound 127, 5-Amino-7-(4-(3-fluoropropyl)piperazinyl)-2-(2-furyl)[1,2,4]triazolo[1,5-c]pyrimidine] are 59%, 3, 10 and 96%.
Turning to `Cc1nc(CN2CCN(c3cc4nc(-c5ccco5)nn4c(N)n3)CC2)cs1` [Compound 142, 5-Amino-2-(2-furyl)-7-(4-(2-methylthiazol-4-ylmethyl)piperazinyl)[1,2,4]triazolo[1,5-c]pyrimidine], the inhibition at 0.1 µM at adenosine A2A receptor was 66%. Besides, in assay [1], the “Total score (catalepsy)” value was 6, the “Number of Animals showing remission” value came out at 10 and the inhibition in vivo at 10 mg/kg worked out at 88%.
As to `C[C@@H]1CN(c2cc3nc(-c4ccco4)nn3c(N)n2)C[C@H](C)N1CCO` [Compound 120, 5-Amino-7-(cis-3,5-dimethyl-4-(2-hydroxyethyl)piperazinyl)-2-(2-furyl)[1,2,4]triazolo[1,5-c]pyrimidine], the inhibition at 0.1 µM on adenosine A2A receptor amounted to 29%. Moreover, in assay [1], the “Total score (catalepsy)” value is given as 3, the “Number of Animals showing remission” value stood at 10 and the inhibition in vivo at 10 mg/kg was 94%.
For the molecule `CC(O)CN1CCN(c2cc3nc(-c4ccco4)nn3c(N)n2)CC1` (racemic) [Compound 105, (±)-5-Amino-2-(2-furyl)-7-(4-(2-hydroxypropyl)piperazinyl)[1,2,4]triazolo[1,5-c]pyrimidine], the inhibition at 0.1 µM on adenosine A2A receptor came out at 41%. Also, in assay [1], the “Total score (catalepsy)” value is listed as 4, the “Number of Animals showing remission” value is 10 and the inhibition in vivo at 10 mg/kg is 92%.
